Measured values published in article PMC5218480 (PLoS ONE, 2017).

System: MV-4-11 cells
Experiment: Gene expression microarray analysis (Affymetrix PrimeView) and GSEA
Assay type: cell-based, human
Design: RFU PODN (11730768_x_at) / Fold change /veh PODN (11730768_x_at) / RFU LINC00158 (11744669_a_at) / Fold change /veh LINC00158 (11744669_a_at) / RFU DUSP10 (11751237_a_at) / Fold change /veh DUSP10 (11751237_a_at) / RFU ID3 (11757404_x_at) / Fold change /veh ID3 (11757404_x_at) / RFU PLEKHG5 (11737974_s_at) / Fold change /veh PLEKHG5 (11737974_s_at) / RFU LRRC4B (11730491_at) / Fold change /veh LRRC4B (11730491_at) / RFU GIMAP4 (11747438_a_at) / Fold change /veh GIMAP4 (11747438_a_at) / RFU KRT8 (11758183_x_at) / Fold change /veh KRT8 (11758183_x_at) / RFU CNN1 (11734310_a_at) / Fold change /veh CNN1 (11734310_a_at) / RFU VPS37D (11726825_at) / Fold change /veh VPS37D (11726825_at) / RFU C10orf10 (11716522_x_at) / Fold change /veh C10orf10 (11716522_x_at) / RFU KIR2DL2 /// KIR2DL4 /// KIR2DL5A /// KIR2DL5B /// KIR2DS1 /// KIR2DS2 /// KIR2DS3 /// KIR2DS4 /// KIR3DL3 /// KIR3DL3 /// KIR3DS1 (11738374_at) / Fold change /veh KIR2DL2 /// KIR2DL4 /// KIR2DL5A /// KIR2DL5B /// KIR2DS1 /// KIR2DS2 /// KIR2DS3 /// KIR2DS4 /// KIR3DL3 /// KIR3DL3 /// KIR3DS1 (11738374_at) / RFU C1QL1 (11718748_at) / Fold change /veh C1QL1 (11718748_at) / RFU TMPRSS4 (11747572_a_at) / Fold change /veh TMPRSS4 (11747572_a_at) / RFU HAMP (11756126_x_at) / Fold change /veh HAMP (11756126_x_at) / RFU RNFT2 (11725882_a_at) / Fold change /veh RNFT2 (11725882_a_at) / RFU NR4A2 (11747474_a_at) / Fold change /veh NR4A2 (11747474_a_at) / RFU ABCC12 (11746883_a_at) / Fold change /veh ABCC12 (11746883_a_at) / RFU TMEM136 (11760407_x_at) / Fold change /veh TMEM136 (11760407_x_at) / RFU CLDN22 /// WWC2 (11732394_at) / Fold change /veh CLDN22 /// WWC2 (11732394_at) / RFU HLA-DPB1 (11760878_x_at) / Fold change /veh HLA-DPB1 (11760878_x_at) / RFU SPINT1 (11716480_a_at) / Fold change /veh SPINT1 (11716480_a_at) / RFU GAP43 (11754022_s_at) / Fold change /veh GAP43 (11754022_s_at) / RFU A4GNT (11735810_at) / Fold change /veh A4GNT (11735810_at) / RFU PRB3 (11715151_x_at) / Fold change /veh PRB3 (11715151_x_at) / RFU TUBB4B (11761932_at) / Fold change /veh TUBB4B (11761932_at) / RFU CAPN14 (11732068_a_at) / Fold change /veh CAPN14 (11732068_a_at) / RFU TMCC2 (11721928_a_at) / Fold change /veh TMCC2 (11721928_a_at) / RFU IRGQ (11745062_a_at) / Fold change /veh IRGQ (11745062_a_at) / RFU FAM174B (11720279_a_at) / Fold change /veh FAM174B (11720279_a_at) / RFU TMPRSS4 (11748680_a_at) / Fold change /veh TMPRSS4 (11748680_a_at) / RFU FAM212B (11763350_a_at) / Fold change /veh FAM212B (11763350_a_at) / RFU PLEKHG5 (11743358_a_at) / Fold change /veh PLEKHG5 (11743358_a_at) / RFU ZSCAN30 (11745921_a_at) / Fold change /veh ZSCAN30 (11745921_a_at) / RFU CMKLR1 (11741424_a_at) / Fold change /veh CMKLR1 (11741424_a_at) / RFU LOC101060620 /// MAPK8IP1 (11723275_at) / Fold change /veh LOC101060620 /// MAPK8IP1 (11723275_at) / RFU SPTSSB (11747773_x_at) / Fold change /veh SPTSSB (11747773_x_at) / RFU PRSS12 (11739890_at) / Fold change /veh PRSS12 (11739890_at) / RFU BIN1 (11741810_x_at) / Fold change /veh BIN1 (11741810_x_at) / RFU WNT11 (11732464_a_at) / Fold change /veh WNT11 (11732464_a_at) / RFU C10orf10 (11716521_a_at) / Fold change /veh C10orf10 (11716521_a_at) / RFU C5orf56 (11738089_at) / Fold change /veh C5orf56 (11738089_at) / RFU CYB561 (11721691_x_at) / Fold change /veh CYB561 (11721691_x_at) / RFU ANKRD19P (11752326_a_at) / Fold change /veh ANKRD19P (11752326_a_at) / RFU OR2T12 /// OR2T33 /// OR2T8 (11738714_s_at) / Fold change /veh OR2T12 /// OR2T33 /// OR2T8 (11738714_s_at) / RFU VCAN (11748164_a_at) / Fold change /veh VCAN (11748164_a_at) / RFU JSRP1 (11732532_at) / Fold change /veh JSRP1 (11732532_at) / RFU KRTAP10-11 (11738290_x_at) / Fold change /veh KRTAP10-11 (11738290_x_at) / RFU MYO3A (11730013_a_at) / Fold change /veh MYO3A (11730013_a_at) / RFU EBF3 (11725865_a_at) / Fold change /veh EBF3 (11725865_a_at) / RFU CAMK2N1 (11719241_x_at) / Fold change /veh CAMK2N1 (11719241_x_at) / RFU C5orf56 (11738088_a_at) / Fold change /veh C5orf56 (11738088_a_at) / RFU OLFML3 (11715873_a_at) / Fold change /veh OLFML3 (11715873_a_at) / RFU LOC100653217 /// NTM (11731650_a_at) / Fold change /veh LOC100653217 /// NTM (11731650_a_at) / RFU MAPK11 (11762145_a_at) / Fold change /veh MAPK11 (11762145_a_at) / RFU FIZ1 (11724087_x_at) / Fold change /veh FIZ1 (11724087_x_at) / RFU OASL (11726364_x_at) / Fold change /veh OASL (11726364_x_at) / RFU SOX15 (11748057_x_at) / Fold change /veh SOX15 (11748057_x_at) / RFU CD79A (11719716_a_at) / Fold change /veh CD79A (11719716_a_at) / RFU HIST1H1D (11736915_at) / Fold change /veh HIST1H1D (11736915_at) / RFU CASKIN2 (11723855_a_at) / Fold change /veh CASKIN2 (11723855_a_at) / RFU LOC730098 (11760151_x_at) / Fold change /veh LOC730098 (11760151_x_at) / RFU OR4N2 (11742367_at) / Fold change /veh OR4N2 (11742367_at) / RFU PRRT2 (11749266_a_at) / Fold change /veh PRRT2 (11749266_a_at) / RFU SNX32 (11753110_a_at) / Fold change /veh SNX32 (11753110_a_at) / RFU CDHR5 (11726645_a_at) / Fold change /veh CDHR5 (11726645_a_at) / RFU RCAN1 (11760418_a_at) / Fold change /veh RCAN1 (11760418_a_at) / RFU FAM167A (11723789_a_at) / Fold change /veh FAM167A (11723789_a_at) / RFU FAM26E (11764081_at) / Fold change /veh FAM26E (11764081_at) / RFU ISYNA1 (11749810_s_at) / Fold change /veh ISYNA1 (11749810_s_at) / RFU ACY1 (11761880_at) / Fold change /veh ACY1 (11761880_at) / RFU 11764098_at / Fold change /veh 11764098_at / RFU SAMD14 (11745864_x_at) / Fold change /veh SAMD14 (11745864_x_at) / RFU NPB (11741838_a_at) / Fold change /veh NPB (11741838_a_at) / RFU TMPRSS6 (11731388_a_at) / Fold change /veh TMPRSS6 (11731388_a_at) / RFU KRTAP10-2 (11738614_at) / Fold change /veh KRTAP10-2 (11738614_at) / RFU ARHGAP8 /// PRR5-ARHGAP8 (11727945_x_at) / Fold change /veh ARHGAP8 /// PRR5-ARHGAP8 (11727945_x_at) / RFU KRTAP5-7 /// NADSYN1 (11734609_at) / Fold change /veh KRTAP5-7 /// NADSYN1 (11734609_at) / RFU RASL12 (11751679_a_at) / Fold change /veh RASL12 (11751679_a_at) / RFU CDKN2B (11736163_a_at) / Fold change /veh CDKN2B (11736163_a_at) / RFU PRF1 (11729649_at) / Fold change /veh PRF1 (11729649_at) / RFU, ZNF638 /// ZNF638-IT1 / Fold change vs veh, ZNF638 /// ZNF638-IT1 / RFU, PANK3 / Fold change vs veh, PANK3 / RFU, SH3YL1 / Fold change vs veh, SH3YL1 / RFU, ZEB2 / Fold change vs veh, ZEB2 / RFU, NRIP1 / Fold change vs veh, NRIP1 / RFU, PTTG1IP / Fold change vs veh, PTTG1IP / RFU, CAPN2 / Fold change vs veh, CAPN2 / RFU, MED14 / Fold change vs veh, MED14 / RFU, SNORA58 / Fold change vs veh, SNORA58 / RFU, C1orf63 / Fold change vs veh, C1orf63 / RFU, LRRFIP1 / Fold change vs veh, LRRFIP1 / RFU, NDUFAF7 / Fold change vs veh, NDUFAF7 / RFU, SLC12A2 / Fold change vs veh, SLC12A2 / RFU, IBTK / Fold change vs veh, IBTK / RFU, ESF1 / Fold change vs veh, ESF1 / Fold change vs veh, TMEM50B / RFU, TAOK1 / Fold change vs veh, TAOK1 / RFU, ACBD3 / Fold change vs veh, ACBD3 / RFU, TMA16 / Fold change vs veh, TMA16 / RFU, RWDD3 / Fold change vs veh, RWDD3 / RFU, BCAT1 / Fold change vs veh, BCAT1 / RFU, EDEM3 / Fold change vs veh, EDEM3 / RFU, TMEM33 / Fold change vs veh, TMEM33 / RFU, WDR75 / Fold change vs veh, WDR75 / RFU, AHCTF1 / Fold change vs veh, AHCTF1 / RFU, TFRC / Fold change vs veh, TFRC / RFU, ZDHHC17 / Fold change vs veh, ZDHHC17 / RFU, NOM1 / Fold change vs veh, NOM1 / RFU, ARL8B / Fold change vs veh, ARL8B / RFU, ZBTB11 / Fold change vs veh, ZBTB11 / RFU, TAMM41 / Fold change vs veh, TAMM41 / RFU, KIAA1704 /// LOC100996395 / Fold change vs veh, KIAA1704 /// LOC100996395 / RFU, ING1 / Fold change vs veh, ING1 / RFU, TRMT61B / Fold change vs veh, TRMT61B / RFU, FUBP3 / Fold change vs veh, FUBP3 / RFU, TP53 / Fold change vs veh, TP53 / RFU, TNKS2 / Fold change vs veh, TNKS2 / RFU, ZFP14 / Fold change vs veh, ZFP14 / RFU, ACTR2 / Fold change vs veh, ACTR2 / RFU, PPP3R1 / Fold change vs veh, PPP3R1 / RFU, PIK3R1 / Fold change vs veh, PIK3R1 / RFU, HNRNPA1 / Fold change vs veh, HNRNPA1 / RFU, RNF170 / Fold change vs veh, RNF170 / RFU, ZNF28 / Fold change vs veh, ZNF28 / RFU, RNGTT / Fold change vs veh, RNGTT / RFU, OGT / Fold change vs veh, OGT / RFU, BRD1 / Fold change vs veh, BRD1 / RFU, MARS / Fold change vs veh, MARS / RFU, ZNF655 / Fold change vs veh, ZNF655 / RFU, FAHD1 / Fold change vs veh, FAHD1 / RFU, BDP1 / Fold change vs veh, BDP1 / RFU, LRRCC1 / Fold change vs veh, LRRCC1 / RFU, ARID1A / Fold change vs veh, ARID1A / RFU, ZNF146 / Fold change vs veh, ZNF146 / RFU, ZNF330 / Fold change vs veh, ZNF330 / RFU, GPN3 / Fold change vs veh, GPN3 / RFU, C9orf123 / Fold change vs veh, C9orf123 / RFU, N4BP2L2 / Fold change vs veh, N4BP2L2 / RFU, ARFIP1 / Fold change vs veh, ARFIP1 / RFU, FAM179B / Fold change vs veh, FAM179B / RFU, BCL10 / Fold change vs veh, BCL10 / RFU, UHRF1BP1L / Fold change vs veh, UHRF1BP1L / RFU, BET1 / Fold change vs veh, BET1 / RFU, CNOT2 / Fold change vs veh, CNOT2 / RFU, ZNF268 / Fold change vs veh, ZNF268 / Fold change vs veh, ZNF507 / RFU, DGCR2 / Fold change vs veh, DGCR2 / RFU, WDSUB1 / Fold change vs veh, WDSUB1 / Fold change vs veh, HSP90B1 /// MIR3652 / RFU, ADSS / Fold change vs veh, ADSS / RFU, GK / Fold change vs veh, GK / RFU, ZNF148 / Fold change vs veh, ZNF148 / RFU, TAF9 / Fold change vs veh, TAF9 / RFU, SLC1A5 / Fold change vs veh, SLC1A5 / RFU, SLMO2 / Fold change vs veh, SLMO2 / RFU, ABCC4 / Fold change vs veh, ABCC4 / RFU, LOC101060439 /// RAP1B / Fold change vs veh, LOC101060439 /// RAP1B / RFU, RFX7 / Fold change vs veh, RFX7 / RFU, GTPBP10 / Fold change vs veh, GTPBP10 / RFU, CNEP1R1 / Fold change vs veh, CNEP1R1 / RFU, BIVM-ERCC5 /// ERCC5 / Fold change vs veh, BIVM-ERCC5 /// ERCC5 / RFU, ILF3 / Fold change vs veh, ILF3 / RFU 11762660_at / Fold change /veh 11762660_at / RFU VCAN (11757783_s_at) / Fold change /veh VCAN (11757783_s_at) / RFU DDX43 (11728927_at) / Fold change /veh DDX43 (11728927_at) / RFU KRT8 (11758188_x_at) / Fold change /veh KRT8 (11758188_x_at) / RFU NKD1 (11759106_at) / Fold change /veh NKD1 (11759106_at) / RFU SRD5A1 (11742802_a_at) / Fold change /veh SRD5A1 (11742802_a_at) / RFU TPSAB1 /// TPSB2 (11721975_s_at) / Fold change /veh TPSAB1 /// TPSB2 (11721975_s_at) / RFU GSTM3 (11746129_a_at) / Fold change /veh GSTM3 (11746129_a_at) / RFU IL23R (11737362_x_at) / Fold change /veh IL23R (11737362_x_at) / RFU TMEM51 (11727254_a_at) / Fold change /veh TMEM51 (11727254_a_at) / RFU PIWIL2 (11732686_x_at) / Fold change /veh PIWIL2 (11732686_x_at) / RFU ORM1 (11744905_x_at) / Fold change /veh ORM1 (11744905_x_at) / RFU CCDC152 (11743942_at) / Fold change /veh CCDC152 (11743942_at) / RFU ECM1 (11717891_a_at) / Fold change /veh ECM1 (11717891_a_at) / RFU IL23R (11748794_a_at) / Fold change /veh IL23R (11748794_a_at) / RFU TNFAIP8L3 (11732012_x_at) / Fold change /veh TNFAIP8L3 (11732012_x_at) / RFU MBOAT4 (11741988_at) / Fold change /veh MBOAT4 (11741988_at) / RFU 11764193_at / Fold change /veh 11764193_at / RFU TMEM53 (11763286_at) / Fold change /veh TMEM53 (11763286_at) / RFU MAGEB2 (11727129_at) / Fold change /veh MAGEB2 (11727129_at) / RFU TMEM200A (11744735_a_at) / Fold change /veh TMEM200A (11744735_a_at) / RFU CCDC152 (11751479_a_at) / Fold change /veh CCDC152 (11751479_a_at) / RFU FAM211A (11726209_a_at) / Fold change /veh FAM211A (11726209_a_at) / RFU RGS16 (11746705_a_at) / Fold change /veh RGS16 (11746705_a_at) / RFU VCAN (11755009_s_at) / Fold change /veh VCAN (11755009_s_at) / RFU RHOB (11743442_s_at) / Fold change /veh RHOB (11743442_s_at) / RFU RGS16 (11720943_a_at) / Fold change /veh RGS16 (11720943_a_at) / RFU RGS16 (11720944_at) / Fold change /veh RGS16 (11720944_at) / RFU, VPS4B / Fold change vs veh, VPS4B / RFU, CREB1 / Fold change vs veh, CREB1 / RFU, DNAJC13 / Fold change vs veh, DNAJC13 / RFU, GNAQ / Fold change vs veh, GNAQ / RFU, CDK5R1 / Fold change vs veh, CDK5R1 / RFU, ZRANB3 / Fold change vs veh, ZRANB3 / RFU, CUL4A / Fold change vs veh, CUL4A / RFU, CCNY / Fold change vs veh, CCNY / RFU, UFL1 / Fold change vs veh, UFL1 / RFU, COG3 / Fold change vs veh, COG3 / RFU, DIAPH2 / Fold change vs veh, DIAPH2 / RFU, SKA2 / Fold change vs veh, SKA2 / RFU, AFF3 / Fold change vs veh, AFF3 / RFU, LMF1 / Fold change vs veh, LMF1 / RFU, IPO11 / Fold change vs veh, IPO11 / RFU, DFFB / Fold change vs veh, DFFB / RFU, FOXP1 / Fold change vs veh, FOXP1 / RFU, CARD8 / Fold change vs veh, CARD8 / RFU, STRN3 / Fold change vs veh, STRN3 / RFU, ADK / Fold change vs veh, ADK / RFU, RASSF2 / Fold change vs veh, RASSF2 / RFU, WIPF1 / Fold change vs veh, WIPF1 / RFU, LARP1B / Fold change vs veh, LARP1B / RFU, RASA1 / Fold change vs veh, RASA1 / RFU, RB1 / Fold change vs veh, RB1 / RFU, PPFIA1 / Fold change vs veh, PPFIA1 / RFU, MAT2A / Fold change vs veh, MAT2A / RFU, CCT5 / Fold change vs veh, CCT5 / RFU, WDR92 / Fold change vs veh, WDR92 / RFU, CUX1 / Fold change vs veh, CUX1 / RFU, TTC7A / Fold change vs veh, TTC7A / RFU, TMEM135 / Fold change vs veh, TMEM135 / RFU, DEPTOR / Fold change vs veh, DEPTOR / RFU, CPM / Fold change vs veh, CPM / RFU, DNAJB6 / Fold change vs veh, DNAJB6 / RFU, CACNA2D3 / Fold change vs veh, CACNA2D3 / RFU, DTX4 / Fold change vs veh, DTX4 / RFU, TFCP2 / Fold change vs veh, TFCP2 / RFU, GMCL1 /// GMCL1P1 / Fold change vs veh, GMCL1 /// GMCL1P1 / RFU, AEBP2 / Fold change vs veh, AEBP2 / RFU, SNHG1 /// SNORD22 /// SNORD25 /// SNORD26 /// SNORD27 /// SNORD28 /// SNORD29 /// SNORD31 / Fold change vs veh, SNHG1 /// SNORD22 /// SNORD25 /// SNORD26 /// SNORD27 /// SNORD28 /// SNORD29 /// SNORD31 / Fold change (Aza/veh), C12orf56 (ProbeSet 11735607_a_at) / Fold change (ACY-1035/veh), C12orf56 (ProbeSet 11735607_a_at) / Fold change (Aza/veh), FGFR1OP (ProbeSet 11751329_s_at) / Fold change (ACY-1035/veh), FGFR1OP (ProbeSet 11751329_s_at) / Fold change (Aza/veh), VPS36 (ProbeSet 11739960_a_at) / Fold change (ACY-1035/veh), VPS36 (ProbeSet 11739960_a_at) / RFU SYPL1 (11715823_x_at) / Fold change /veh SYPL1 (11715823_x_at) / RFU IGFBP7 (11715501_s_at) / Fold change /veh IGFBP7 (11715501_s_at) / RFU REEP3 (11722064_at) / Fold change /veh REEP3 (11722064_at) / RFU IGLL1 (11728026_x_at) / Fold change /veh IGLL1 (11728026_x_at): dose or concentration left out as unconfirmed
Settings: ProbeSet 11743510_at; LIST D

Structure (SMILES): Nc1ncn([C@@H]2O[C@H](CO)[C@@H](O)[C@H]2O)c(=O)n1 [azacitidine]
- Fold change vs veh, UFL1: 0.83
